The results in this text go back to patent US20180134683A1, “HETEROCYLCIC COMPOUNDS AS IDH2 INHIBITORS” (TELIGENE LTD., priority 2015, published 2018).

≈ marks a conversion by molar mass, not a printed value. Read-outs that look alike come from different tables or passages of the source.

One data set deals with T1, IDH2 R140Q (Homo sapiens, UniProt P48735, R140Q).
T1 sequence (P48735 40-452 R140Q): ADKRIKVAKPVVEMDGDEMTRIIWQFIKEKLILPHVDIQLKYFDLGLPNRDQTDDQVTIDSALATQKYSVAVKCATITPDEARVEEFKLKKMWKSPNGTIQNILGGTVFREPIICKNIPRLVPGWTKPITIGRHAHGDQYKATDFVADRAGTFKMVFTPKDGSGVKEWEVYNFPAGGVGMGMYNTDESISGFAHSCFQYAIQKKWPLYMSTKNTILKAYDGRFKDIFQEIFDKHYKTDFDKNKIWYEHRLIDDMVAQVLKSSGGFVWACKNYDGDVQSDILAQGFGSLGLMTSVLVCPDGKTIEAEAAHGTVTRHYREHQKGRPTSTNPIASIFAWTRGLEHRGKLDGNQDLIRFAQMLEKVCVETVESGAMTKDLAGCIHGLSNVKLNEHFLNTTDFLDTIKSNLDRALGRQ
Nature of the data set: IDH2 enzymatic assay (cofactor depletion assay). In kind it is biochemical. As to the method: Enzymatic Assay. Compounds were assayed for IDH2 R140Q inhibitory activity through a cofactor depletion assay. […] The reaction was terminated by the addition of a second enzyme, diaphorase, and a corresponding substrate, resazurin. Diaphorase reduces resazurin to the highly fluorescent resorufin with the concomitant oxidation of NADPH to NADP, both halting the IDH2 reaction by depleting the available cofactor pool and facilitating quantitation of the amount of cofactor remaining after a specific time period through quantitative production of an easily detected fluorophore. […] The compound was then incubated for one hour at room temperature with the enzyme; before starting the IDH2 reaction with the addition of 10 μl of substrate mix containing 50 μM NADPH and 6.3 mM a-KG in the buffer described above.

In a further data set the target is ALK (L1152 R) (Homo sapiens, UniProt Q9UM73, L1152R). Nature of the data set: In vitro kinase assay (33P-ATP, P81 filter). The format is biochemical. Conditions: for remaining activity at 10 µM: 10 μM compound, 10 μM ATP. As to the method:
(§1) These properties may be assesses, for example, using one or more of the procedures set out below: • An in vitro assay which determines the ability of a test compound to inhibit kinases. Conducts the kinase assay with the following condition and procedure: • Reagent: Base Reaction Buffer; 20 mM Hepes (pH 7.5), 10 mM MgCl2, 1 mM EGTA, 0.02% Brij35, 0.02 mg/ml BSA, 0.1 mM Na3VO4, 2 mM DTT, 1% DMSO.
(§2) • 1. Prepare indicated substrate in freshly prepared Base Reaction Buffer. • 2. Deliver any required cofactors to the substrate solution obtained in step 1. • 3. Deliver indicated kinase into the substrate solution prepared in step 2 and gently mix. • 4. Deliver compounds in DMSO into the kinase reaction mixture prepared in step 3. • 5. Deliver ^33P-ATP (specific activity 0.01 μCi/μl final) into the reaction mixture prepared in step 4 to initiate the reaction. • 6. Incubate kinase reaction for 120 min. at room temperature. • 7. Reactions are spotted onto P81 ion exchange paper (Whatman # 3698-915). • 8. Washing filters extensively in 0.75% Phosphoric acid. Compound was tested in single dose duplicate mode at a concentration of 10 μM, reactions were carried out at 10 μM ATP

The target of the next data set is T2, AXL (R499C) (Homo sapiens, UniProt P30530, R499C).
T2 sequence (P30530 26-894 R499C): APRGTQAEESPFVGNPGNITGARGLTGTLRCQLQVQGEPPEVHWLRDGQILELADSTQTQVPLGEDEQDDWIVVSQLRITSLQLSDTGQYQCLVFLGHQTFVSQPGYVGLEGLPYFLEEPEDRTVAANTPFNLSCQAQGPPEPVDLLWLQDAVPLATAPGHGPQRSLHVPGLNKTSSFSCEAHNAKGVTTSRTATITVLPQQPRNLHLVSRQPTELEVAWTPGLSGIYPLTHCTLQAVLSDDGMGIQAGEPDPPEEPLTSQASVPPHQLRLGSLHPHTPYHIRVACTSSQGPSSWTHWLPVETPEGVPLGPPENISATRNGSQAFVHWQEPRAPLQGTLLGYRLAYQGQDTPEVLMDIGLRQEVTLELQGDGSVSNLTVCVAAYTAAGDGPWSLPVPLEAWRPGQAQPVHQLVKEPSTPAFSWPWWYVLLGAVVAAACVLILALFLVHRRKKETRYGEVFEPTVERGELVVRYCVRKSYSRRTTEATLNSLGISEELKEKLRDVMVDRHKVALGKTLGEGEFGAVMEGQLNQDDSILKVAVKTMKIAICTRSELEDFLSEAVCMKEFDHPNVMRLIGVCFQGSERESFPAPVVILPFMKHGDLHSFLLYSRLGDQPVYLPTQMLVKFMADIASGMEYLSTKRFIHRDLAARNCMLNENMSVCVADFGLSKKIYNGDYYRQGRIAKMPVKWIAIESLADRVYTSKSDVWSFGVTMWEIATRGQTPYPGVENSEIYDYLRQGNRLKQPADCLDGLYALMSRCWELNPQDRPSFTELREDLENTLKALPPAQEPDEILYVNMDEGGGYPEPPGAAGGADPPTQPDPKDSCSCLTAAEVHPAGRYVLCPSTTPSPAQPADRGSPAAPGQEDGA
In words: In vitro kinase assay (33P-ATP, P81 filter). The format is biochemical. Conditions: for remaining activity at 10 µM: 10 μM compound, 10 μM ATP. As to the method:
as §1, §2

The target of the next data set is BRAF (G464V) (Homo sapiens, UniProt P15056, G464V). Nature of the data set: In vitro kinase assay (33P-ATP, P81 filter). To be noted: for remaining activity at 10 µM: 10 μM compound, 10 μM ATP. The format is biochemical. The method, then: as §1, §2
The next data set deals with T3, c-MER (A708S) (Homo sapiens, UniProt Q12866, A708S).
T3 sequence (Q12866 21-999 A708S): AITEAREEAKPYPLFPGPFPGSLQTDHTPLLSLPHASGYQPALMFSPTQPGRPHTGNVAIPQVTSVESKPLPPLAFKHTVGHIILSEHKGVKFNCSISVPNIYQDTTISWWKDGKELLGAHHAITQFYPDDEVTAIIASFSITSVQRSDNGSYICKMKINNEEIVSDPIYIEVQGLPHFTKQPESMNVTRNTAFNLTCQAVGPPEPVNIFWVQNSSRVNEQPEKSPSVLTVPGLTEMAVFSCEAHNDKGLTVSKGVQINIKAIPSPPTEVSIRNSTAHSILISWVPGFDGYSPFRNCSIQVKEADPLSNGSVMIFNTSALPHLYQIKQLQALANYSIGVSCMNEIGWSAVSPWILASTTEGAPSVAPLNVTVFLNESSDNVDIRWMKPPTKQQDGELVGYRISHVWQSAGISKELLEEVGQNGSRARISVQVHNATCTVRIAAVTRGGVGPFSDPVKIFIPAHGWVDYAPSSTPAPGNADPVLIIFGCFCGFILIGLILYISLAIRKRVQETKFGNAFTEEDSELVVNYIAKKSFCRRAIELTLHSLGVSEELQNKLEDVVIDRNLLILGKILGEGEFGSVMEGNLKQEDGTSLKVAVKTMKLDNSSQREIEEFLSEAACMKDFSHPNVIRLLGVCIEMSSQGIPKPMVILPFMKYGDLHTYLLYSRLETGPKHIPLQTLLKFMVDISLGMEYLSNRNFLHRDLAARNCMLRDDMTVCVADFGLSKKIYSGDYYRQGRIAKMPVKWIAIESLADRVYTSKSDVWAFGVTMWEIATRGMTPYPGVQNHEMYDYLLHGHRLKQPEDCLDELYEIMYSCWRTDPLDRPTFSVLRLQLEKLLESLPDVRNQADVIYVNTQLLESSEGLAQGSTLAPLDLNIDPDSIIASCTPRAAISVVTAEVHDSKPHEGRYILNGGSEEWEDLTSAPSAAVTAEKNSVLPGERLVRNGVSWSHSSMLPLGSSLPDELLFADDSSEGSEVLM
In words: In vitro kinase assay (33P-ATP, P81 filter). In kind it is biochemical. Conditions: for remaining activity at 10 µM: 10 μM compound, 10 μM ATP. The method, then:
as §1, §2

A short description of data set [1]: Solubility measurement (HPLC). In kind it is physicochemical. To be noted: for solubility at 30 min: aqueous buffer, thermodynamic from solid, 25° C. As to the method:
Preparation of reference standard solution: 2 mg of Compound 17 or Compound 19 was added individually to 100 mL volumetric flask each. The compound was diluted with acetonitrile to 100 mL.
Preparation of sample solution: 2 mg of Compound 17 or Compound 19 was added individually to 2 mL eppendorf tube (EP), followed by addition of 1 mL of pH 7.0 or 4.0 buffer solution (20 mM). The solution was shook for 2 minutes and left for 30 minutes at 25° C. After standing for 30 minutes, precipitate was formed in the bottom of the EP. The solutions was filtered through 0.2 um membrane filter, and then diluted by 50 times with water.
The standard and sample solutions were injected into the HPLC on a Shim-Pack CLC-ODS C18 column (150mm×6.0mm, 5um) with the same volume. The mobile phase consisted of acetonitrile with 2% trichloromethane−20 mM KH2PO4 buffer (pH=7.0) at a flow rate of 1 mL/minutes (40:60). The detection wavelength is at 264 nm. Calculation: solubility of sample=the concentration of standard×Area of sample×50 /Area of standard.

The nature of data set [2]: Pharmacokinetic (PK) profile.
Where [3] appears, read: IDH2 R140Q, one hour preincubation, 60 minutes reaction, read-out: Enzyme Inhibition IDH2.
[4] abbreviates: duplicate 1, read-out: % Enzyme Activity (relative to DMSO controls) Data 1.
The mark [5] stands for this setting: duplicate 2, read-out: % Enzyme Activity (relative to DMSO controls) Data 2.
[6] abbreviates: pH 4.0 buffer solution (20 mM), read-out: Solubility at pH 4.0.
The mark [7] stands for this setting: pH 7.0 buffer solution (20 mM), read-out: Solubility at pH 7.0.

In general, solubility refers to the dissolved amount per volume that the medium holds.

ALK (L1152 R), sequence (Q9UM73 19-1620 L1152R): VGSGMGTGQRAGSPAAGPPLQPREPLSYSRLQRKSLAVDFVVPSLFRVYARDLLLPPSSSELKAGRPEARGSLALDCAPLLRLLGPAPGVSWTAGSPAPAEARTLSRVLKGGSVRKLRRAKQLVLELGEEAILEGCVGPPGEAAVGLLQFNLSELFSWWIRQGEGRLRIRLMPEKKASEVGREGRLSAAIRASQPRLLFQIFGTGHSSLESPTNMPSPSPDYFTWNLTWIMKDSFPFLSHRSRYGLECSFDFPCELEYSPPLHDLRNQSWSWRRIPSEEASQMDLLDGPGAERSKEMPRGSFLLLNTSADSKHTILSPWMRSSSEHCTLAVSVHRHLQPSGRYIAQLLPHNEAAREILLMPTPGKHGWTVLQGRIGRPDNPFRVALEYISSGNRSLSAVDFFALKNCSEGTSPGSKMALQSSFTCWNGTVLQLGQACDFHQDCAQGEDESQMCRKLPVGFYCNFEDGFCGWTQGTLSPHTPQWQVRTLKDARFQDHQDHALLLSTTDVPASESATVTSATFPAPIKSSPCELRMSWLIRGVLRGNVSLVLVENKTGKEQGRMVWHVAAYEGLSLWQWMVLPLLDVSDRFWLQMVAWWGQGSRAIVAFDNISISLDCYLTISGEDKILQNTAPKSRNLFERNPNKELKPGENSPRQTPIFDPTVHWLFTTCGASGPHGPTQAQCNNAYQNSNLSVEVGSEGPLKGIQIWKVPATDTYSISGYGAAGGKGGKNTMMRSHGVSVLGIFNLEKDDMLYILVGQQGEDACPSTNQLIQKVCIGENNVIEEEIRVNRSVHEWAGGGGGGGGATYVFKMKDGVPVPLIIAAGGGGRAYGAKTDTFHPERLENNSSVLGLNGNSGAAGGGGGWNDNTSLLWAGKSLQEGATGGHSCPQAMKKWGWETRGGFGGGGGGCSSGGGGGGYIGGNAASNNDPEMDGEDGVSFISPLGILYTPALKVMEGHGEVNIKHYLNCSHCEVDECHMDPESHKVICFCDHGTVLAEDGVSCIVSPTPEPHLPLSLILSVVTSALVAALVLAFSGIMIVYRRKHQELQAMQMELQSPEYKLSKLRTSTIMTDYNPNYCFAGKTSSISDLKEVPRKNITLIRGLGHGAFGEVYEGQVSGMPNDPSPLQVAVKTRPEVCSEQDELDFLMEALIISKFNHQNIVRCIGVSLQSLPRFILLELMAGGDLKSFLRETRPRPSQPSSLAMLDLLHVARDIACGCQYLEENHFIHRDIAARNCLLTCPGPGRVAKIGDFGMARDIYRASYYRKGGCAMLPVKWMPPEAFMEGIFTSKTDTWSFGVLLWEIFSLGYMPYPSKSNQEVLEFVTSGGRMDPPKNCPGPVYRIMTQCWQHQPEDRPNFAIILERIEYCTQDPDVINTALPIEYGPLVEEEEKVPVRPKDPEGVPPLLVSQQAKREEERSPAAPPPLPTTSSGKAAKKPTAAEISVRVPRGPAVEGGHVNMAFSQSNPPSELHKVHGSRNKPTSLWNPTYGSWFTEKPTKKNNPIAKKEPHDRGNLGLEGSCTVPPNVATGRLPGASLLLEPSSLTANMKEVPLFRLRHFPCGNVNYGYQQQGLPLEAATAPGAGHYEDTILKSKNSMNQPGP
BRAF (G464V), sequence (P15056 whole entry G464V): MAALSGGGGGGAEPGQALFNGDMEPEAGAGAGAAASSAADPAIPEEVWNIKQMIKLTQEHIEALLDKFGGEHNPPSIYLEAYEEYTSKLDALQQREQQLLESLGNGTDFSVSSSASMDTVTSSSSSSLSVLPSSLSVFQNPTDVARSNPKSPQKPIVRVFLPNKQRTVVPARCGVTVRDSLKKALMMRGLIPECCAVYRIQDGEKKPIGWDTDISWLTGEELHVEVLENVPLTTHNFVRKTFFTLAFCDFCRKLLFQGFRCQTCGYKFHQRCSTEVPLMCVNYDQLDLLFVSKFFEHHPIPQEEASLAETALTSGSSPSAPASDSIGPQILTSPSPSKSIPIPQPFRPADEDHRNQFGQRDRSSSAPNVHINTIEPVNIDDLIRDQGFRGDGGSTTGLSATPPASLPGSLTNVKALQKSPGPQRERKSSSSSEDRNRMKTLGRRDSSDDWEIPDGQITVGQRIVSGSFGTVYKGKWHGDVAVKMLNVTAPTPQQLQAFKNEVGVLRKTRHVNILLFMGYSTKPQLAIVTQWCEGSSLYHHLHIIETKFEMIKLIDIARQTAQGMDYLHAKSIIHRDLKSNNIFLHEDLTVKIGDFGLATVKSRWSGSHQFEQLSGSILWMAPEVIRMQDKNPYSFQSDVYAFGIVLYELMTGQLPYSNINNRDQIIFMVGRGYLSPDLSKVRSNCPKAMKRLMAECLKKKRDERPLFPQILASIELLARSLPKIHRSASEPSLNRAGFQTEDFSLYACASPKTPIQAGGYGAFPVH

On to `CN1CCN(c2nc(Nc3ccnc(C(F)(F)F)c3)nc(-c3cccc(C(F)(F)F)n3)n2)CC1` [Compound 17, 4-(4-methylpiperazin-1-yl)-6-(6-(trifluoromethyl)pyridin-2-yl)-N-(2-(trifluoromethyl)pyridin-4-yl)-1,3,5-triazin-2-amine], for which the IC50 at IDH2 R140Q (setting [3]) amounted to 262 nM. In addition, the remaining activity at 10 µM at ALK (L1152 R) (setting [4]) stood at 79.2%; at ALK (L1152 R) (setting [5]), 78.9%; on AXL (R499C) (setting [4]) it was 58.2%; at AXL (R499C) (setting [5]), 58.1%; at BRAF (G464V) (setting [4]), 69.9%; at BRAF (G464V) (setting [5]), 68.9%. The remaining activity at 10 µM was found to be 79.8% at c-MER (A708S) (setting [4]) and 79.5% on c-MER (A708S) (setting [5]). For the same compound, the “activity against kinase (in words)” value on ALK (L1152 R) (panel of kinases), on AXL (R499C) (panel of kinases), at BRAF (G464V) (panel of kinases) and at c-MER (A708S) (panel of kinases) was “active” throughout. The solubility at 30 min came out at 123 µg/mL (≈ 254 µM) in data set [1] (setting [6]) and 0.276 µg/mL (≈ 0.57 µM) in data set [1] (setting [7]). Moreover, the “solubility compared with Compound 19 (in words)” value is “much higher solubility” in data set [1] (pH=4.0) and “better solubility” in data set [1] (pH=7.0). Moreover, the “pharmacokinetic (PK) profile compared with Compound 19 (in words)” value in data set [2] was “better pharmacokinecitc (PK)”. In addition, in “Safety profile”, the “safety profile compared with Compound 19 (in words)” value is reported as “favorable safety profile”.

Turning to `CN(C)c1nc(Nc2ccnc(C(F)(F)F)c2)nc(-c2cccc(C(F)(F)F)n2)n1` [Compound 18, N^2,N^2-dimethyl-6-(6-(trifluoromethyl)pyridin-2-yl)-N^4-(2-(trifluoromethyl)pyridin-4-yl)-1,3,5-triazine-2,4-diamine], the IC50 at IDH2 R140Q (setting [3]) turned out to be 12.2 nM.

In turn, `CC(C)(O)CNc1nc(Nc2ccnc(C(F)(F)F)c2)nc(-c2cccc(C(F)(F)F)n2)n1` [Compound 19, reference compound] yielded an IC50 against IDH2 R140Q of 401 nM. Also, the results for the solubility at 30 min in data set [1] (setting [6]) and in data set [1] (setting [7]) were 1.59 µg/mL (≈ 3.36 µM) and 0.109 µg/mL (≈ 0.23 µM), respectively.
